# Results: patent US11634436B2, “Pyridine lactam compounds and methods of use thereof” (Genentech, Inc., priority 2018, dated 2023)
# Biological target: T1, human RIP1 kinase domain (2-375) (Homo sapiens, UniProt Q13546)
# T1 construct: Purified human RIP1 kinase domain (2-375) (50 nM) derived from a baculovirus-infected insect cell expression system; made in house; host or cells: baculovirus-infected insect cells
# T1 sequence (Q13546 2-375): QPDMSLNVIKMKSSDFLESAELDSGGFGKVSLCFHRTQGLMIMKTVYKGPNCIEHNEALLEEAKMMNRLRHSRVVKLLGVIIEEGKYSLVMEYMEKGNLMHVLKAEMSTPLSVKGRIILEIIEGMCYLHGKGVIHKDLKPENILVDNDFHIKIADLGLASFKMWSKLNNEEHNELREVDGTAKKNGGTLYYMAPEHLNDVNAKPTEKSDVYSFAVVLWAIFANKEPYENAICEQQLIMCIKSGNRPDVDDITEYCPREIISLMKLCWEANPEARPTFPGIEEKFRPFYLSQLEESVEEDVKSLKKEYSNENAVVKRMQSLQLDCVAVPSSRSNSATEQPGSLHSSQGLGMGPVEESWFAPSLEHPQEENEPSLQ
# Test: RIP1 kinase inhibition biochemical assay (Transcreener ADP, fluorescence polarization)
# Settings: tight-binding apparent inhibition constant (Ki app, Morrison equation); 50 nM enzyme, 50 uM ATP, 2 hours incubation
# Description: RIP1 Kinase Inhibition Assays (Biochemical Assay)
# The compounds of the present invention were tested for their capacity to inhibit RIP1K activity as described below.
# Enzyme assay: The ability of the receptor interacting protein kinase (RIPK1) to catalyze the hydrolysis of adenosine-5′-triphosphate (ATP) is monitored using the Transcreener ADP (adenosine-5′-diphosphate) assay (BellBrook Labs). Purified human RIP1 kinase domain (2-375) (50 nM) derived from a baculovirus-infected insect cell expression system is incubated with test compounds for 2 hours in 50 mM Hepes buffer (pH 7.5) containing 30 mM MgCl2, 1 mM dithiothreitol, 50 uM ATP, 0.002% Brij-35, and 0.5% dimethyl sulfoxide (DMSO). Reactions are quenched by the addition of 1× Bell Brooks Stop buffer B (20 mM Hepes (ph7.5), 40 mM ethylenediaminetetraacetic acid and 0.02% Brij-35) containing an additional 12 mM EDTA and 55 ug/mL ADP2 antibody and 4 nM ADP-AlexaFluor® 633 tracer. The tracer bound to the antibody is displaced by the ADP generated during the RIP1K reaction, which causes a decrease in fluorescence polarization that is measured by laser excitation at 633 nm with a FP microplate reader M1000. Fractional activity was plotted against test article concentration. Using Genedata Screener software (Genedata; Base1, Switzerland), the data were fit to the tight-binding apparent inhibition constant (Ki^app) Morrison equation [Williams, J. W. and Morrison, J. F. (1979) The kinetics of reversible tight-binding inhibition. Methods Enzymol 63: 437-67]. The following equation was used to calculate fractional activity and Ki^app:
# [formula] where [E]T and [I]T are the total concentrations of active enzyme and test article, respectively.
# Exemplary compounds of the present invention are provided in Table 1 along with their physiochemical characterization and in vitro RIP1 kinase inhibitory activity data. “Method” in the first column of each table refers to the synthetic method(s) used to prepare each compound as shown in the Examples above. In certain examples, chiral column retention times (min) are provided for certain stereoisomers. Unless otherwise specified, the stereochemistry shown in each structure represents relative configuration of a single stereoisomer, and absolute configuration (i.e., “R” and/or “S”) is arbitrarily assigned. In some embodiments, where the Method is described to include the separation of stereoisomers, a single stereoisomer of a compound of Table 1 is provided.
row,Structure (SMILES),Ki [nM]
1,"CCC(F)(F)n1ncc2cnc(C(=O)N[C@H]3COc4cccnc4N(C)C3=O)cc21 [Example 12, 1-(1,1-difluoropropyl)-N-[(3S)-5-methyl-4-oxo-2,3-dihydropyrido[3,2-b][1,4]oxazepin-3-yl]pyrazolo [4,3-c]pyridine-6-carboxamide]",5
2,"CN1C(=O)[C@@H](NC(=O)c2cc3n(n2)CCO[C@@H]3c2ccccc2F)COc2cccnc21 (single isomer, unassigned) [Example 4]",950
3,"CN1C(=O)[C@@H](NC(=O)c2cc3n(n2)CCO[C@H]3c2ccccc2)COc2cccnc21 (single isomer, unassigned) [Example 5]",19
4,"[2H]C([2H])([2H])N1C(=O)[C@@H](NC(=O)c2cc3n(n2)CCO[C@H]3c2ccccc2)COc2cccnc21 [Example 7, (4S)-4-phenyl-N-[(3S)-4-oxo-5-(trideuteriomethyl)-2,3-dihydropyrido[3,2-b][1,4]oxazepin-3-yl]-6,7-dihydro-4H-pyrazolo[5,1-c][1,4]oxazine-2-carboxamide]",28
5,"CN1C(=O)[C@@H](NC(=O)c2ncc3cnn(C4CCCC4)c3n2)COc2cccnc21 [Example 9, 1-cyclopentyl-N-[(3S)-5-methyl-4-oxo-2,3-dihydropyrido[3,2-b][1,4]oxazepin-3-yl]pyrazolo [3,4-d]pyrimidine-6-carboxamide]",11
6,"CN1C(=O)[C@@H](NC(=O)c2cc3n(n2)CCO[C@H]3c2ccccc2F)COc2cccnc21 (single isomer, unassigned) [Example 3]",24
7,"C[C@H]1Oc2cccnc2N(C)C(=O)[C@H]1NC(=O)c1cc2n(n1)CCO[C@H]2c1ccccc1 [Example 6, (4S)-4-phenyl-N-[(2R,3S)-2,5-dimethyl-4-oxo-2,3-dihydropyrido[3,2-b][1,4]oxazepin-3-yl]-6,7-dihydro-4H-pyrazolo[5,1-c][1,4]oxazine-2-carboxamide]",7
8,"CCC(F)(F)n1ncc2cnc(C(=O)N[C@H]3COc4cccnc4N(C)C3=O)nc21 [Example 8, 1-(1,1-difluoropropyl)-N-[(3S)-5-methyl-4-oxo-2,3-dihydropyrido[3,2-b][1,4]oxazepin-3-yl]pyrazolo [3,4-d]pyrimidine-6-carboxamide]",18
9,"CN1C(=O)[C@@H](NC(=O)c2cc3n(n2)[C@H](c2ccccc2)C[C@@H]3F)COc2ccccc21 (single isomer, unassigned) [Example 11]",4.4
10,"CN1C(=O)[C@@H](NC(=O)c2cc3n(n2)[C@@H](c2ccccc2)C[C@H]3F)COc2ccccc21 (single isomer, unassigned) [Example 10]",5400
11,"CN1C(=O)[C@@H](NC(=O)c2cc3n(n2)[C@H](c2ccccc2)C[C@@H]3F)COc2cccnc21 (single isomer, unassigned) [Example 1]",5.2
12,"CC(C)n1ncc2cnc(C(=O)N[C@H]3COc4cccnc4N(C)C3=O)nc21 [Example 2, 1-isopropyl-N-[(3S)-5-methyl-4-oxo-2,3-dihydropyrido[3,2-b][1,4]oxazepin-3-yl]pyrazolo[3,4-d]pyrimidine-6-carboxamide]",14
